Results from ChEMBL document CHEMBL1155085, “Propindilactones E-J, Schiartane Nortriterpenoids from Schisandra propinqua var. propinqua” (J Nat Prod, 2008).

Columns and labels:
Assay type in all cases: functional, cell-based
HT-29 = experiment: Cytotoxicity against human HT29 cells after 72 hrs by sulforhodamine B assay; conditions: HT-29, 72 h
K562 = experiment: Cytotoxicity against human K562 cells after 72 hrs by sulforhodamine B assay; conditions: K562, 72 h
A549 = experiment: Cytotoxicity against human A549 cells after 72 hrs by sulforhodamine B assay; conditions: A549, 72 h

Measured: IC50

C[C@@H]([C@@H](O)[C@@H]1C[C@@H](C)C(=O)O1)[C@H]1[C@@H](O)[C@H](O)[C@]2(O)[C@@H]3C[C@H]4C(C)(C)O[C@@H]5CC(=O)O[C@@]54CC[C@@]3(O)CC[C@]12C [PRPINDILACETONES H]
> 100 µM: all assays above

C[C@@H]([C@@H](O)[C@@H]1C[C@@H](C)C(=O)O1)[C@H]1C[C@H](O)[C@]2(O)[C@@H]3C[C@H]4C(C)(C)O[C@@H]5CC(=O)O[C@@]54CC[C@@]3(O)CC[C@]12C [PRPINDILACETONES I]
> 100 µM: all assays above

CC(=O)O[C@@H]1C[C@]2(O)CC[C@]34OC(=O)C[C@H]3OC(C)(C)[C@@H]4C[C@H]2[C@]23O[C@H]2C[C@H]([C@@H](C)[C@H]2CC=C(C)C(=O)O2)[C@@]13C [PRPINDILACETONES J]
> 100 µM: all assays above
